Measurements from ChEMBL document CHEMBL4477221, “Discovery and Structure-Based Optimization of 2-Ureidothiophene-3-carboxylic Acids as Dual Bacterial RNA Polymerase and Viral Reverse Transcriptase Inhibitors” (J Med Chem, 2016).
pIC50: −log10 of the molar value. Converted amounts (≈) assume the structure as drawn. The source made the active and inactive calls. The rule behind the calls is not given here.

Key:
[1] = Cytotoxicity against human HeLa cells infected with HIV1 pseudoparticle expressing Gag, Gag-pol, RRE, and vesicular stomatitis virus-G protein assessed as inhibition of cell viability at 25 uM preincubated with cells for 30 mins followed by pseudoparticle addition measured 24 hrs post infection by MTT assay relative to control; type: cell-based; conditions: read-out: INH
[2] = molecular target: Human immunodeficiency virus type 1 reverse transcriptase (Human immunodeficiency virus 1, UniProt Q72547); assay: Inhibition of HIV1 reverse transcriptase using T19-Cy5 labeled 23-mer DNA/T2-TAMRA labeled 63-mer DNA as primer/template assessed as inhibition of dNTP incorporation into primer/template
[3] = system: Human immunodeficiency virus 1; assay: Binding affinity to bodipy-labeled HIV1 reverse transcriptase p66 W24C/K287C double mutant assessed as induction of p66 thumb and finger domain open conformation at 3 uM by fluorescence spectroscopic analysis
[4] = Ratio of IC50 for NNRTI resistant HIV1 harboring reverse transcriptase K103N/V179F/Y181C mutant infected in human TZM-bl cells to IC50 for wild type HIV1 NL4-3 infected in human TZM-bl cells; type: functional
[5] = system: Human immunodeficiency virus 1; assay: Antiviral activity against HIV1 pseudoparticle expressing Gag, Gag-pol, RRE, and vesicular stomatitis virus-G protein assessed as inhibition of pseudoparticles entry into human HeLa cells pretreated for 30 mins followed by pseudoparticle addition measured 24 hrs post infection by luciferase reporter gene assay; type: functional, organism-based; conditions: for pIC50: Human immunodeficiency virus 1, HeLa, read-out: IC50
Staphylococcus aureus = assay: Antibacterial activity against Staphylococcus aureus; type: functional
[6] = Ratio of IC50 for NNRTI resistant HIV1 harboring reverse transcriptase A98G/K101E/Y181C/G190A mutant infected in human TZM-bl cells to IC50 for wild type HIV1 NL4-3 infected in human TZM-bl cells; type: functional
[7] = Ratio of IC50 for NNRTI resistant HIV1 harboring reverse transcriptase L100I/K103N/H221Y mutant infected in human TZM-bl cells to IC50 for wild type HIV1 NL4-3 infected in human TZM-bl cells; type: functional
[8] = Inhibition of Escherichia coli RNA polymerase
[9] = system: Human immunodeficiency virus 1; assay: Antiviral activity against NNRTI resistant HIV1 harboring reverse transcriptase V106I/Y181C/G190A/H221Y mutant assessed as inhibition of viral infection in human TZM-bl cells after 48 hrs by luciferase reporter gene assay; type: functional, organism-based; conditions: Human immunodeficiency virus 1, TZM-bl
[10] = Cytotoxicity against HEK293 cells; type: cell-based; conditions: human, read-out: LD50 (the source's name)
[11] = system: Human immunodeficiency virus 1; assay: Antiviral activity against wild type HIV1 NL4-3 assessed as inhibition of viral infection in human TZM-bl cells after 48 hrs by luciferase reporter gene assay; type: functional, organism-based; conditions: Human immunodeficiency virus 1, NL4-3, TZM-bl
[12] = molecular target: Human immunodeficiency virus type 1 reverse transcriptase (Human immunodeficiency virus 1) (UniProt Q72547); assay: Inhibition of TAMRA-labeled primer/template duplex binding to HIV1 Alexa 488-labeled reverse transcriptase by FRET assay
[13] = molecular target: Human immunodeficiency virus type 1 reverse transcriptase (Human immunodeficiency virus 1) (UniProt Q72547); assay: Effect on binding orientation of HIV1 Alexa 488-labeled reverse transcriptase to TAMRA-labeled primer/template duplex by FRET assay
[14] = molecular target: Human immunodeficiency virus type 1 reverse transcriptase (Human immunodeficiency virus 1) (UniProt Q72547); assay: Inhibition of HIV1 reverse transcriptase using T19-Cy5 labeled 23-mer DNA/T2-TAMRA labeled 63-mer DNA as primer/template assessed as inhibition of dNTP incorporation into primer/template at 25 uM relative to control
[15] = system: Human immunodeficiency virus 1; assay: Antiviral activity against wild type HIV1 NL4-3; type: functional, organism-based; conditions: Human immunodeficiency virus 1, NL4-3
[16] = system: Human immunodeficiency virus 1; assay: Binding affinity to bodipy-labeled HIV1 reverse transcriptase p66 W24C/K287C double mutant assessed as induction of p66 thumb and finger domain open conformation by measuring increase in bodipy fluorescence at 10 uM by stopped flow kinetic analysis
[17] = molecular target: Human immunodeficiency virus type 1 reverse transcriptase (Human immunodeficiency virus 1) (UniProt Q72547); assay: Inhibition of HIV1 reverse transcriptase using T19-Cy5 labeled 23-mer DNA/T2-TAMRA labeled 63-mer DNA as primer/template assessed as inhibition of dNTP incorporation into primer/template at 1 uM relative to control
[18] = molecular target: Human immunodeficiency virus type 1 reverse transcriptase (Human immunodeficiency virus 1) (UniProt Q72547); assay: Inhibition of HIV1 reverse transcriptase using T19-Cy5 labeled 23-mer DNA/T2-TAMRA labeled 63-mer DNA as primer/template assessed as inhibition of dNTP incorporation into primer/template at 10 uM relative to control

## CS(=O)(=O)Nc1ccc(NC(=O)Nc2sc(-c3ccc(Cl)c(Cl)c3)cc2C(=O)O)cc1
[1]
  cytotoxicity at 24 h, 25 µM: 0%
[2]
  pIC50: 7.00
[3]
  Activity: inactive
[4]
  Ratio IC50: >4
[5]
  pIC50: 4.52
Staphylococcus aureus
  MIC: 39 µg/mL (≈ 77.9 µM)
[6]
  Ratio IC50: 3.5
[7]
  Ratio IC50: >4
[8]
  pIC50: 4.59
[9]
  pIC50: 5.82
[10]
  CC50: > 100 µM
[11]
  pIC50: 5.30
[12]
  Activity: inactive
[13]
  Activity: inactive

## CCN(Cc1ccccc1)C(=O)Nc1cc(-c2ccc(Cl)cc2)sc1C(=O)O
[14]
  inhibition: 12%
[8]
  pIC50: 4.12

## COC(=O)Nc1ccc(NC(=O)Nc2sc(-c3ccc(Cl)c(Cl)c3)cc2C(=O)O)cc1
[1]
  cytotoxicity at 24 h, 25 µM: 6%
[2]
  pIC50: 6.52
[3]
  Activity: inactive
[5]
  pIC50: 4.52
Staphylococcus aureus
  MIC: 25 µg/mL (≈ 52 µM)
[8]
  pIC50: 4.72
[10]
  CC50: 86 µM
[12]
  Activity: inactive
[13]
  Activity: inactive

## Cc1cc(/C=C/C#N)cc(C)c1Nc1ccnc(Nc2ccc(C#N)cc2)n1 [RILPIVIRINE]
[4]
  Ratio IC50: 2.3
[6]
  Ratio IC50: 22
[15]
  pIC50: 9.05
[7]
  Ratio IC50: 6.3
[9]
  pIC50: 5.46

## O=C(Cn1cncn1)Nc1ccc(NC(=O)Nc2sc(-c3ccc(Cl)c(Cl)c3)cc2C(=O)O)cc1
[2]
  pIC50: 6.10
[3]
  Activity: inactive
[8]
  pIC50: 4.40
[12]
  Activity: inactive
[13]
  Activity: inactive

## O=C(Nc1ccc(F)cc1)Nc1sc(-c2ccc(Cl)c(Cl)c2)cc1C(=O)O
[1]
  cytotoxicity at 24 h, 25 µM: 0%
[2]
  pIC50: 6.15
[3]
  Activity: inactive
[5]
  IC50: Not Active
Staphylococcus aureus
  MIC: 4 µg/mL (≈ 9.41 µM)
[8]
  pIC50: 4.85
[10]
  CC50: 68 µM
[12]
  Activity: inactive
[13]
  Activity: inactive

## CN(C)S(=O)(=O)Nc1ccc(NC(=O)Nc2sc(-c3ccc(Cl)c(Cl)c3)cc2C(=O)O)cc1
[2]
  pIC50: 6.22
[3]
  Activity: inactive
Staphylococcus aureus
  MIC: 13 µg/mL (≈ 24.6 µM)
[8]
  pIC50: 4.64
[10]
  CC50: > 100 µM
[12]
  Activity: inactive
[13]
  Activity: inactive

## O=C1Nc2ccc(Cl)cc2[C@@](C#CC2CC2)(C(F)(F)F)O1 [EFAVIRENZ]
[9]
  pIC50: 4.59

## O=C(Nc1ccc(NS(=O)(=O)c2ccccc2)cc1)Nc1sc(-c2ccc(Cl)c(Cl)c2)cc1C(=O)O
[2]
  pIC50: 6.05
[3]
  Activity: inactive
[4]
  Ratio IC50: >1.5
Staphylococcus aureus
  MIC: 3 µg/mL (≈ 5.33 µM)
[6]
  Ratio IC50: 1
[7]
  Ratio IC50: >1.5
[8]
  pIC50: 5.10
[9]
  pIC50: < 5.82
[10]
  CC50: 94 µM
[11]
  pIC50: 4.82
[12]
  Activity: inactive
[13]
  Activity: inactive

## Cc1ccnc2c1NC(=O)c1cccnc1N2C1CC1 [NEVIRAPINE]
[15]
  pIC50: 7.00
[16]
  Activity: Active
[8]
  pIC50: < 3.70
[9]
  pIC50: < 3.70

## CCN(Cc1ccccc1)C(=O)Nc1sc(-c2ccc(Cl)cc2)cc1C(=O)O
[17]
  inhibition: 12%
[8]
  pIC50: 4.27

## Cc1cc(C#N)cc(C)c1Oc1nc(Nc2ccc(C#N)cc2)nc(N)c1Br [ETRAVIRINE]
[4]
  Ratio IC50: 8.8
[6]
  Ratio IC50: 15
[15]
  pIC50: 8.30
[7]
  Ratio IC50: 6.8
[9]
  pIC50: 5.22

## O=C(Nc1ccccc1)Nc1sc(-c2ccc(Cl)c(Cl)c2)cc1C(=O)O
[1]
  cytotoxicity at 24 h, 25 µM: 0%
[2]
  pIC50: 5.92
[3]
  Activity: inactive
[4]
  Ratio IC50: >4
[5]
  pIC50: 4.70
Staphylococcus aureus
  MIC: 6 µg/mL (≈ 14.7 µM)
[6]
  Ratio IC50: 3
[7]
  Ratio IC50: >4
[16]
  Activity: inactive
[8]
  pIC50: 4.70
[9]
  pIC50: 6.00
[10]
  CC50: 61 µM
[11]
  pIC50: 5.30
[12]
  Activity: inactive
[13]
  Activity: inactive

## CCN(Cc1ccccc1)C(=O)Nc1scc(-c2ccc(Cl)c(Cl)c2)c1C(=O)O
[17]
  inhibition: 12%
[8]
  pIC50: 4.24

## CCN(Cc1ccccc1)C(=O)Nc1cc(-c2ccc(Cl)c(Cl)c2)sc1C(=O)O
[14]
  inhibition: 24%
[8]
  pIC50: 4.66

## Cc1cn([C@H]2C[C@H](N=[N+]=[N-])[C@@H](CO[P@](=O)(O)O[P@](=O)(O)OP(=O)(O)O)O2)c(=O)[nH]c1=O [ZIDOVUDINE TRIPHOSPHATE]
[2]
  pIC50: 5.15

## CCN(Cc1ccccc1)C(=O)Nc1scc(-c2ccc(Cl)cc2)c1C(=O)O
[17]
  inhibition: 12%
[8]
  pIC50: < 4.00

## CCN(Cc1ccccc1)C(=O)Nc1sc(-c2ccc(Cl)c(Cl)c2)cc1C(=O)O
[1]
  cytotoxicity at 24 h, 25 µM: 23%
[2]
  pIC50: 6.05
[3]
  Activity: inactive
[5]
  pIC50: 4.57
Staphylococcus aureus
  MIC: 10 µg/mL (≈ 22.3 µM)
[8]
  pIC50: 4.68
[10]
  CC50: 58 µM
[12]
  Activity: inactive
[13]
  Activity: inactive

## CCN(Cc1ccccc1)C(=O)Nc1c(-c2ccc(Cl)cc2)csc1C(=O)O
[18]
  inhibition: 13%
[8]
  pIC50: < 3.70

## O=C(O)c1cc(-c2ccc(Cl)c(Cl)c2)sc1NC(=O)N(Cc1ccccc1)Cc1ccccc1
[14]
  inhibition: 63%
[8]
  pIC50: 5.15

## O=C(NCc1ccccc1)Nc1sc(-c2ccc(Cl)c(Cl)c2)cc1C(=O)O
[14]
  inhibition: 64%
[8]
  pIC50: 4.37

## CC(=O)Nc1ccc(NC(=O)Nc2sc(-c3ccc(Cl)c(Cl)c3)cc2C(=O)O)cc1
[2]
  pIC50: 6.22
[3]
  Activity: inactive
[8]
  pIC50: 4.57
[12]
  Activity: inactive
[13]
  Activity: inactive

## CCN(Cc1ccccc1)C(=O)Nc1c(-c2ccc(Cl)c(Cl)c2)csc1C(=O)O
[18]
  inhibition: 4%
[8]
  pIC50: 4.00

## Nc1ccc(NC(=O)Nc2sc(-c3ccc(Cl)c(Cl)c3)cc2C(=O)O)cc1
[14]
  inhibition: 64%
[8]
  pIC50: 4.28

## COc1ccc(NC(=O)Nc2sc(-c3ccc(Cl)c(Cl)c3)cc2C(=O)O)cc1
[1]
  cytotoxicity at 24 h, 25 µM: 12%
[2]
  pIC50: 6.10
[3]
  Activity: inactive
[5]
  pIC50: 4.46
Staphylococcus aureus
  MIC: 8 µg/mL (≈ 18.3 µM)
[8]
  pIC50: 4.66
[10]
  CC50: 80 µM
[12]
  Activity: inactive
[13]
  Activity: inactive
